Data: US20210122730A1, “GLUCOCORTICOID RECEPTOR MODULATORS” (ORIC Pharmaceuticals, Inc., priority 2017, published 2021)

What follows are molecules tested against T1, GR (Homo sapiens, UniProt P04150) (assay: In Vitro GR Luciferase Reporter Assay (antagonist mode, CHO-K1-GR-MMTV-Luc reporter cells)). Conditions: antagonist assay with 10 nM Dexamethasone, 18-24 hours.
T1 construct: expressed in transfected cells; host or cells: CHO-K1
T1 sequence (P04150 1-777): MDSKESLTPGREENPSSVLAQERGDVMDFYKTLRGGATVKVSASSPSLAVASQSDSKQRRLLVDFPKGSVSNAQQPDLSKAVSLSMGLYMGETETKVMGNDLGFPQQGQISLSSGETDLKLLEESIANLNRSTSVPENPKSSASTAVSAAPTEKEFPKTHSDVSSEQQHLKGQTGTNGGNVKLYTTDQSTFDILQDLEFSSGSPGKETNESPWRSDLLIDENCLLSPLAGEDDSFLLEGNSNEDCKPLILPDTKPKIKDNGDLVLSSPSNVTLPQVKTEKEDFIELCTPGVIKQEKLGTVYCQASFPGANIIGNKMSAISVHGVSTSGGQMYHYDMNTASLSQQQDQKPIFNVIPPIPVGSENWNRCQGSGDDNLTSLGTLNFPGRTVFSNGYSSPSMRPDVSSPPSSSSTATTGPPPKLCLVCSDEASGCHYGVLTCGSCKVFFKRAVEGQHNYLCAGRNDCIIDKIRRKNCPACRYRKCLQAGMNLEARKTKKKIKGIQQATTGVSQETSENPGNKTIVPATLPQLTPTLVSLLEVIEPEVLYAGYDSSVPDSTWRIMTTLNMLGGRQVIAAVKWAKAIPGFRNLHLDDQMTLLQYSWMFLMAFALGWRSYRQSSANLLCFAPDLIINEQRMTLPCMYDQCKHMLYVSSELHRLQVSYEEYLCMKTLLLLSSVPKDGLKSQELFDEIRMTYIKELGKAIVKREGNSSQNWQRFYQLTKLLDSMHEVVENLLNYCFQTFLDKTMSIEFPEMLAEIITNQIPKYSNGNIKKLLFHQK
Format: cell-based
How it was run: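 CHO-K1-GR-MMTV-Luc cells in phenol red-free DMEM with 10% CSS, stimulated with 10 nM dexamethasone (final) and treated with 8-point 1:5 compound dilutions for about 18-24 h at 37° C. Luciferase measured by OneGlo luminescence; IC50 derived for inhibition of GR activity.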
`CN([C@H]1CCC2=Cc3c(cnn3-c3ccc(F)cc3)C[C@]2(C(=O)c2ccccn2)C1)S(=O)(=O)c1ccc(C(F)(F)F)cc1` [Example 85, N-((4aS,6S)-1-(4-fluorophenyl)-4a-picolinoyl-4,4a,5,6,7,8-hexahydro-1H-benzo[f]indazol-6-yl)-N-methyl-4-(trifluoromethyl)benzenesulfonamide] gave an IC50 of no more than 0.1 µM.
Work on `CN([C@H]1CCC2=Cc3c(cnn3-c3ccc(F)cc3)C[C@]2(C(=O)c2cc(C(F)(F)F)ccn2)C1)S(=O)(=O)c1ccc(C(F)(F)F)cc1` [Example 86, N-((4aS,6S)-1-(4-fluorophenyl)-4a-(4-(trifluoromethyl)picolinoyl)-4,4a,5,6,7,8-hexahydro-1H-benzo[f]indazol-6-yl)-N-methyl-4-(trifluoromethyl)benzenesulfonamide] yielded an IC50 of no more than 0.1 µM.
For `CCn1cc(S(=O)(=O)N(C)[C@H]2CCC3=Cc4c(cnn4-c4ccc(F)cc4)C[C@]3(C(=O)c3cc(C(F)(F)F)ccn3)C2)cn1` [Example 87, 1-ethyl-N-((4aS,6S)-1-(4-fluorophenyl)-4a-(4-(trifluoromethyl)picolinoyl)-4,4a,5,6,7,8-hexahydro-1H-benzo[f]indazol-6-yl)-N-methyl-1H-pyrazole-4-sulfonamide], the IC50 was no more than 0.1 µM.
With `CN(C(=O)c1ccccc1)[C@H]1CCC2=Cc3c(cnn3-c3ccc(F)cc3)C[C@]2(C(=O)c2ccccn2)C1` [Example 89, N-((4aS,6S)-1-(4-fluorophenyl)-4a-picolinoyl-4,4a,5,6,7,8-hexahydro-1H-benzo[f]indazol-6-yl)-N-methylbenzamide] the IC50 was no more than 0.1 µM.
`CN(c1ccccc1)S(=O)(=O)[C@H]1CCC2=Cc3c(cnn3-c3ccc(F)cc3)C[C@]2(C(=O)c2ccccn2)C1` [Example 92, (4aS,6S)-1-(4-fluorophenyl)-N-methyl-N-phenyl-4a-picolinoyl-4,4a,5,6,7,8-hexahydro-1H-benzo[f]indazole-6-sulfonamide] showed an IC50 of 0.1 to 1 µM.
With `CN([C@@H]1CCC2=Cc3c(cnn3-c3ccc(F)cc3)C[C@]2(C(=O)c2cc(C(F)(F)F)ccn2)C1)S(=O)(=O)c1cnn(C)c1` [Example 95, N-((4aS,6R)-1-(4-fluorophenyl)-4a-(4-(trifluoromethyl)picolinoyl)-4,4a,5,6,7,8-hexahydro-1H-benzo[f]indazol-6-yl)-N,1-dimethyl-1H-pyrazole-4-sulfonamide] the IC50 was no more than 0.1 µM.
`CN(C(=O)c1cnn(C)c1)[C@H]1CCC2=Cc3c(cnn3-c3ccc(F)cc3)C[C@]2(C(=O)c2cc(C(F)(F)F)ccn2)C1` [Example 96, N-((4aS,6S)-1-(4-fluorophenyl)-4a-(4-(trifluoromethyl)picolinoyl)-4,4a,5,6,7,8-hexahydro-1H-benzo[f]indazol-6-yl)-N,1-dimethyl-1H-pyrazole-4-carboxamide] was tested, and the IC50 was no more than 0.1 µM.
With `CC(C)n1cc(S(=O)(=O)N(C)[C@H]2CCC3=Cc4c(cnn4-c4ccc(F)cc4)C[C@]3(C(=O)c3cc(C(F)(F)F)ccn3)C2)cn1` [Example 97, N-((4aS,6S)-1-(4-fluorophenyl)-4a-(4-(trifluoromethyl)picolinoyl)-4,4a,5,6,7,8-hexahydro-1H-benzo[f]indazol-6-yl)-1-isopropyl-N-methyl-1H-pyrazole-4-sulfonamide] the IC50 was no more than 0.1 µM.
For `CN([C@H]1CCC2=Cc3c(cnn3-c3ccc(F)cc3)C[C@]2(C(=O)c2cc(C(F)(F)F)ccn2)C1)S(=O)(=O)c1cnn(C)c1` [Example 100, N-((4aS,6S)-1-(4-fluorophenyl)-4a-(4-(trifluoromethyl)picolinoyl)-4,4a,5,6,7,8-hexahydro-1H-benzo[f]indazol-6-yl)-N,1-dimethyl-1H-pyrazole-4-sulfonamide], the IC50 was 0.1 to 1 µM.
`CN(c1cnn(C)c1)S(=O)(=O)[C@H]1CCC2=Cc3c(cnn3-c3ccc(F)cc3)C[C@]2(C(=O)c2cc(C(F)(F)F)ccn2)C1` [Example 101, (4aS,6S)-1-(4-fluorophenyl)-N-methyl-N-(1-methyl-1H-pyrazol-4-yl)-4a-(4-(trifluoromethyl)picolinoyl)-4,4a,5,6,7,8-hexahydro-1H-benzo[f]indazole-6-sulfonamide] was tested, and the IC50 was 0.1 to 1 µM.
In the case of `CN([C@H]1CCC2=Cc3c(cnn3-c3ccc(F)cc3)C[C@]2(C(=O)c2ccc(C(F)(F)F)cn2)C1)S(=O)(=O)c1ccc(Cl)cc1` [Example 105, 4-chloro-N-((4aS,6S)-1-(4-fluorophenyl)-4a-(5-(trifluoromethyl)picolinoyl)-4,4a,5,6,7,8-hexahydro-1H-benzo[f]indazol-6-yl)-N-methylbenzenesulfonamide], the IC50 is reported as no more than 0.1 µM.
Molecule `CN([C@H]1CCC2=Cc3c(cnn3-c3ccc(F)cc3)C[C@]2(C(=O)c2nccs2)C1)S(=O)(=O)c1ccc(F)cc1` [Example 106, 4-fluoro-N-((4aS,6S)-1-(4-fluorophenyl)-4a-(thiazole-2-carbonyl)-4,4a,5,6,7,8-hexahydro-1H-benzo[f]indazol-6-yl)-N-methylbenzenesulfonamide] has an IC50 of no more than 0.1 µM.
Molecule `CN([C@H]1CCC2=Cc3c(cnn3-c3ccc(F)cc3)C[C@]2(C(=O)c2cc(C(F)(F)F)ccn2)C1)S(=O)(=O)c1cnn(CC2CC2)c1` [Example 108, 1-(cyclopropylmethyl)-N-((4aS,6S)-1-(4-fluorophenyl)-4a-(4-(trifluoromethyl)picolinoyl)-4,4a,5,6,7,8-hexahydro-1H-benzo[f]indazol-6-yl)-N-methyl-1H-pyrazole-4-sulfonamide] has an IC50 of no more than 0.1 µM.
`CCN([C@H]1CCC2=Cc3c(cnn3-c3ccc(F)cc3)C[C@]2(C(=O)c2ccc(C3CC3)cn2)C1)S(=O)(=O)c1ccc(F)cc1` [Example 109, N-((4aS,6S)-4a-(5-cyclopropylpicolinoyl)-1-(4-fluorophenyl)-4,4a,5,6,7,8-hexahydro-1H-benzo[f]indazol-6-yl)-N-ethyl-4-fluorobenzenesulfonamide] was tested, and the IC50 was no more than 0.1 µM.
Molecule `CCN([C@H]1CCC2=Cc3c(cnn3-c3ccc(F)cc3)C[C@]2(C(=O)c2ccc(C3CC3)cn2)C1)S(=O)(=O)c1ccc(Cl)cc1` [Example 110, 4-chloro-N-((4aS,6S)-4a-(5-cyclopropylpicolinoyl)-1-(4-fluorophenyl)-4,4a,5,6,7,8-hexahydro-1H-benzo[f]indazol-6-yl)-N-ethylbenzenesulfonamide] has an IC50 of no more than 0.1 µM.

Same assay, conditions: antagonist mode, 10 nM Dexamethasone
In the case of `O=C(c1cc(C(F)(F)F)ccn1)[C@]12Cc3cnn(-c4ccc(F)cc4)c3C=C1CC[C@H](S(=O)(=O)c1cnn(CC(F)(F)F)n1)C2` [Example 115, ((4aS,6S)-1-(4-Fluorophenyl)-6-((2-(2,2,2-trifluoroethyl)-2H-1,2,3-triazol-4-yl)sulfonyl)-1,4,5,6,7,8-hexahydro-4aH-benzo[f]indazol-4a-yl)(4-(trifluoromethyl)pyridin-2-yl)methanone], the IC50 is reported as no more than 0.1 µM.
With `CCn1ncc(S(=O)(=O)[C@H]2CCC3=Cc4c(cnn4-c4ccc(F)cc4)C[C@]3(C(=O)c3ccc(C4CC4)cn3)C2)n1` [Example 123, (5-cyclopropylpyridin-2-yl)((4aS,6S)-6-((2-ethyl-2H-1,2,3-triazol-4-yl)sulfonyl)-1-(4-fluorophenyl)-1,4,5,6,7,8-hexahydro-4aH-benzo[f]indazol-4a-yl)methanone] the IC50 was no more than 0.1 µM.
`CN([C@H]1CCC2=Cc3c(cnn3-c3ccc(F)cc3)C[C@]2(C(=O)c2ccc(C3CC3)cn2)C1)S(=O)(=O)c1ccc(F)cc1` [Example 124, N-((4aS,6S)-4a-(5-cyclopropylpicolinoyl)-1-(4-fluorophenyl)-4,4a,5,6,7,8-hexahydro-1H-benzo[f]indazol-6-yl)-4-fluoro-N-methylbenzenesulfonamide] gave an IC50 of no more than 0.1 µM.
Work on `O=C(c1ccccn1)[C@]12Cc3cnn(-c4ccc(F)cc4)c3C=C1CC[C@](F)(S(=O)(=O)c1ccccc1)C2` [Example 125, ((4aS,6S)-6-fluoro-1-(4-fluorophenyl)-6-(phenylsulfonyl)-1,4,5,6,7,8-hexahydro-4aH-benzo[f]indazol-4a-yl)(pyridin-2-yl)methanone] yielded an IC50 of no more than 0.1 µM.
Molecule `CCn1ncc(S(=O)(=O)N(C)[C@H]2CCC3=Cc4c(cnn4-c4ccc(F)cc4)C[C@]3(C(=O)c3cc(C(F)(F)F)ccn3)C2)n1` [Example 126, 2-ethyl-N-((4aS,6S)-1-(4-fluorophenyl)-4a-(4-(trifluoromethyl)picolinoyl)-4,4a,5,6,7,8-hexahydro-1H-benzo[f]indazol-6-yl)-N-methyl-2H-1,2,3-triazole-4-sulfonamide] has an IC50 of no more than 0.1 µM.
In the case of `CCN([C@H]1CCC2=Cc3c(cnn3-c3ccc(F)cc3)C[C@]2(C(=O)c2nccs2)C1)S(=O)(=O)c1ccc(Cl)cc1` [Example 127, 4-chloro-N-ethyl-N-((4aS,6S)-1-(4-fluorophenyl)-4a-(thiazole-2-carbonyl)-4,4a,5,6,7,8-hexahydro-1H-benzo[f]indazol-6-yl)benzenesulfonamide], the IC50 is reported as no more than 0.1 µM.
`CCN([C@H]1CCC2=Cc3c(cnn3-c3ccc(F)cc3)C[C@]2(C(=O)c2nccs2)C1)S(=O)(=O)c1ccc(F)cc1` [Example 128, N-ethyl-4-fluoro-N-((4aS,6S)-1-(4-fluorophenyl)-4a-(thiazole-2-carbonyl)-4,4a,5,6,7,8-hexahydro-1H-benzo[f]indazol-6-yl)benzenesulfonamide] gave an IC50 of no more than 0.1 µM.
